Laboratory results taken from patent publication US20030134865A1, “Modulation of histone deacetylase” (priority 2003, published 2003).

What was measured:
HDAC1 [1] = assay: HDAC1 expression in bronchial biopsies of treated asthmatics (Western blot); type: in vivo, human; settings: placebo 0.28±0.09, p<0.05
From the text: (§1) FIG. 16. Effect of theophylline on HDAC expression and activity in vivo. (a) Western blot analysis of HDAC1 and HDAC 2 expression in bronchial biopsies from mild asthmatic subjects treated with low dose theophylline (LDT) or placebo. (b) Graphical expression of the effect of LDT and placebo on HDAC1 and HDAC2 expression relative to β-actin. (c) Effect of LDT and P on HDAC activity in bronchial biopsies. N=14.
(§2) Western blotting: Immunoprecipitates, whole cell extractions or isolated histones were measured by SDS-PAGE and Western blot analysis using ECL (Amersham, Amersham, UK). Proteins were size-fractionated by SDS-PAGE and transferred to Hybond-ECL membranes. Specific protein bands were detected by ECL according to the manufacturer's instructions.

HDAC activity [2] = assay: Total HDAC activity in bronchial biopsies of treated asthmatics; type: in vivo, human; settings: placebo 67±12, p<0.05
From the text: as §1

[3] = Double-blind cross-over study of low dose theophylline in mild stable asthmatic subjects; settings: 5 weeks low dose theophylline
From the text: Patients: Fifteen mild stable asthmatic subjects (Table 1) receiving treatment with only the inhaled β2-adrenergic agonist aerosol, albuterol, for intermittent relief of wheeze were recruited. […] All patients were atopic as defined by two or more positive skin prick tests to common allergens. […] Current smokers or ex-smokers of more than five pack years and patients with FEV1 less than 80% predicted were excluded.
Fibreoptic bronchoscopy and isolation of BAL macrophages: Subjects attended our bronchoscopy suite at 8.30 am after having fasted from midnight and were pretreated with atropine (0.6 mg iv) and midazolam (5-10 mg iv). Oxygen (31/min) was administered via nasal prongs throughout the procedure and oxygen saturation was monitored with a digital oximeter. Using local anaesthesia with lidocaine (4%) to the upper airways and larynx, a fibreoptic bronchoscope (Olympus BF10) was passed through the nasal passages into the trachea. Bronchoalveolar lavage (BAL) was performed from the right middle lobe using warmed 0.9% NaCl with 4 successive aliquots of 60 mls of 0.9% NaCl. […] Cytospins were prepared and stained with May-Grunwald stain for differential cell counts. Cell viability was assessed using trypan blue exclusion.

[4] = test system: IL-8 release, alveolar macrophages; assay: LPS-induced IL-8 release from alveolar macrophages; type: cell-based, human; settings: macrophages from non-smokers
HDAC2 [5] = assay: HDAC2 expression in A549 cells (Western blot); type: cell-based; settings: for HDAC2 expression: A549 cells
From the text: […]. Proteins were extracted and size fractionated by SDS-PAGE and HDAC2 detected by Western blotting. Densitometric analysis of HDAC2 expression is shown graphically in the lower panel. Data from 3 separate experiments was normalised to β-actin and results expressed as mean±SEM. *p<0.05.
(§3) FIG. 12. Effect of theophylline on HDAC expression. […]. Band densities were controlled for protein loading by comparison with β-actin expression. Results are shown as relative band densities.
Immunoprecipitates, whole cell extractions or isolated histones were measured by SDS-PAGE and Western blot analysis using ECL (Amersham, Amersham, UK). Proteins were size-fractionated by SDS-PAGE and transferred to Hybond-ECL membranes. Immunoreactive bands were detected by ECL.
as §2

[6] = test system: HDAC activity, alveolar macrophages; assay: HDAC activity in alveolar macrophages from non-smokers or smokers; settings: theophylline 10^−5 M, dexamethasone 10^−10 M
HDAC activity [7] = assay: Direct effect on HDAC activity of nuclear proteins from untreated A549 cells; type: biochemical
Procedure: FIG. 13. […] (a) Direct effect of the PDE4 inhibitor rolipram (10 μM) and the adenosine receptor antagonist CGS-15943 (10 μM) on HDAC activity. […] (b) Direct effect of the MEK inhibitor PD089159 (1 μM) and the p38 MAPK inhibitor SB203580 on theophylline induced HDAC activity.

HDAC3 = target: T1, HDAC3 (Homo sapiens, UniProt O15379); assay: Immunoprecipitated HDAC3 activity; type: cell-based; settings: theophylline 10^−5 M
T1 construct: endogenous in cells
From the text: (§4) FIG. 22. Effect of theophylline on HDAC1, HDAC2 and HDAC3 activity.
(§5) Using IP-HAT assays we were able to determine which HDACs were the target for theophylline action.

[8] = test system: histone deacetylase (HDAC) activity, A549 cells; assay: Histone deacetylation activity in total cellular extracts of treated A549 cells
Procedure: (B) Effect of Trichostatin A (TSA) on histone deacetylase activity and histone H4 acetylation. Cells were treated with increasing concentrations of TSA for 6 hrs before total cellular proteins were isolated and analysed for deacetylase activity and also histone acetylation by Western blotting using an anti-pan acetylated histone H4 antibody.
Effect of theophylline on histone deacetylase (HDAC) activity in A549 cells. (a) Cells were stimulated with LPS (3 ng/ml) for 24 hours in the presence or absence of theophylline (10^−5 M) or Dex (10^−6 M). Total cellular proteins were extracted and histone deacetylase activity measured. (b) Direct effect of theophylline on HDAC activity. […] Results are expressed as mean±SEM (n=3-5, *p<0.05, **p<0.01).

HDAC1 [9] = assay: HDAC1 expression in A549 cells (Western blot); type: cell-based
Procedure: as §3, §2

HDAC1 [10] = target: T2, HDAC1 (Homo sapiens, UniProt Q13547); assay: Immunoprecipitated HDAC1 activity; type: cell-based; settings: theophylline 10^−5 M
T2 construct: endogenous in cells
From the text: as §4, §5

[11] = test system: HDAC activity, BAL macrophages; assay: HDAC activity in BAL macrophages; type: cell-based, human; settings: 24 hours
HDAC2 [12] = assay: HDAC2 expression in bronchial biopsies of treated asthmatics (Western blot); type: in vivo, human; settings: placebo 0.28±0.08, p=0.1
From the text: as §1, §2

HDAC2 [13] = target: T3, HDAC2 (Homo sapiens, UniProt Q92769); assay: Immunoprecipitated HDAC2 activity; type: cell-based; settings: theophylline 10^−5 M
T3 construct: endogenous in cells
From the text: as §4, §5

[14] = test system: histone acetyltransferase (HAT) activity, A549 cells
Procedure: (a) Cells were stimulated with LPS (3 ng/ml) for 24 hours in the presence or absence of theophylline (10^−5 M) or Dex (10^−6 M). Total cellular proteins were extracted and histone acetylase activity measured. (b) GM-CSF release into the culture medium was measured after 6 hours by ELISA.
After incubation for 10 min at 37° C. cells were stimulated for 6 hr. Histones were isolated and separated by electrophoresis on SDS-16% polyacrylamide gel. Gels were stained with Coommasie brilliant blue and the core histones (H2A, H2B, H3 and H4) excised. The radioactivity in extracted core histones was determined by liquid scintillation counting and normalised to protein level.

[15] = test system: GM-CSF release, A549 cells; assay: GM-CSF release from A549 cells (ELISA)
Procedure: Determination of GM-CSF expression was measured by sandwich ELISA (Pharmingen, Lugano, Switzerland) according to the manufacturer's instructions.
GM-CSF ELISA: Determination of GM-CSF expression was measured by sandwich ELISA (Pharmingen, Lugano, Switzerland) according to the manufacturer's instructions.

[16] = theophylline 10^−5 M, dexamethasone 10^−10 M

T2 sequence (Q13547 whole entry): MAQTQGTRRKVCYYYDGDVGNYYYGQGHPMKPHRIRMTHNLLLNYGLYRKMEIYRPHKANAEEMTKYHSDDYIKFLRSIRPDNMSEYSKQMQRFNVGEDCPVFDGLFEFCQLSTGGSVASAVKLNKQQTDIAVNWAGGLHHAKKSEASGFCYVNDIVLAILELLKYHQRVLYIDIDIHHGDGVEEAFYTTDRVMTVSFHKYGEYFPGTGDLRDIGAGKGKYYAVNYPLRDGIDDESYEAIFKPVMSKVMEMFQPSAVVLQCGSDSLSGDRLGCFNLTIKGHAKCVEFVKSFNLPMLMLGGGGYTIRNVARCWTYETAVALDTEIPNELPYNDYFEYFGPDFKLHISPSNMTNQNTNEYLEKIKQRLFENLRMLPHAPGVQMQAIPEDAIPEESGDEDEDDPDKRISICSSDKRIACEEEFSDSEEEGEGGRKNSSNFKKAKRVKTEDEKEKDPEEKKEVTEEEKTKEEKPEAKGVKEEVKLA
T3 sequence (Q92769 whole entry): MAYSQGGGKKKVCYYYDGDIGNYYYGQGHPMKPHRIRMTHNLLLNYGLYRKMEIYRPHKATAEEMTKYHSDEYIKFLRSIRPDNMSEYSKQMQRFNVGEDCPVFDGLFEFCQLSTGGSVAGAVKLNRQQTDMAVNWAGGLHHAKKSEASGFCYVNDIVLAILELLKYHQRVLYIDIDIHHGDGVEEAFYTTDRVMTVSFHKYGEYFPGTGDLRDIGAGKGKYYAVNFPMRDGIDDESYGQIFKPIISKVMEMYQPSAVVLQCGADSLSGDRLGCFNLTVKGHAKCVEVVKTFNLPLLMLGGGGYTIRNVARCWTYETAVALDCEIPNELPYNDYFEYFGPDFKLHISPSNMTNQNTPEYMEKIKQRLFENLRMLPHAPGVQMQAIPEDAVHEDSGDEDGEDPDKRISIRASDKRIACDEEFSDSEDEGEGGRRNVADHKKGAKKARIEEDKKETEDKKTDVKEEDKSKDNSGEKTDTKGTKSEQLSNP
T1 sequence (O15379 whole entry): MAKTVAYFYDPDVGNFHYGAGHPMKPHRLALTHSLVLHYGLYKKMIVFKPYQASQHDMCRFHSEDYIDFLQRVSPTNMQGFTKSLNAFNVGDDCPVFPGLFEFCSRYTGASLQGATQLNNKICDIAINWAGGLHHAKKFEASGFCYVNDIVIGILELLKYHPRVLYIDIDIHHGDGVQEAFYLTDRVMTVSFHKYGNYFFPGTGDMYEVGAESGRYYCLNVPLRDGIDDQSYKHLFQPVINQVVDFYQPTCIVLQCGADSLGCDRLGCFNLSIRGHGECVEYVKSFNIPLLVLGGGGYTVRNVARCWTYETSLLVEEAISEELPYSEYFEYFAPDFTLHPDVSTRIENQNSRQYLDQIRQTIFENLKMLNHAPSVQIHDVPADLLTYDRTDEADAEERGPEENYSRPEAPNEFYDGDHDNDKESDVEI
T1 sequence (Q9Y618 whole entry partner): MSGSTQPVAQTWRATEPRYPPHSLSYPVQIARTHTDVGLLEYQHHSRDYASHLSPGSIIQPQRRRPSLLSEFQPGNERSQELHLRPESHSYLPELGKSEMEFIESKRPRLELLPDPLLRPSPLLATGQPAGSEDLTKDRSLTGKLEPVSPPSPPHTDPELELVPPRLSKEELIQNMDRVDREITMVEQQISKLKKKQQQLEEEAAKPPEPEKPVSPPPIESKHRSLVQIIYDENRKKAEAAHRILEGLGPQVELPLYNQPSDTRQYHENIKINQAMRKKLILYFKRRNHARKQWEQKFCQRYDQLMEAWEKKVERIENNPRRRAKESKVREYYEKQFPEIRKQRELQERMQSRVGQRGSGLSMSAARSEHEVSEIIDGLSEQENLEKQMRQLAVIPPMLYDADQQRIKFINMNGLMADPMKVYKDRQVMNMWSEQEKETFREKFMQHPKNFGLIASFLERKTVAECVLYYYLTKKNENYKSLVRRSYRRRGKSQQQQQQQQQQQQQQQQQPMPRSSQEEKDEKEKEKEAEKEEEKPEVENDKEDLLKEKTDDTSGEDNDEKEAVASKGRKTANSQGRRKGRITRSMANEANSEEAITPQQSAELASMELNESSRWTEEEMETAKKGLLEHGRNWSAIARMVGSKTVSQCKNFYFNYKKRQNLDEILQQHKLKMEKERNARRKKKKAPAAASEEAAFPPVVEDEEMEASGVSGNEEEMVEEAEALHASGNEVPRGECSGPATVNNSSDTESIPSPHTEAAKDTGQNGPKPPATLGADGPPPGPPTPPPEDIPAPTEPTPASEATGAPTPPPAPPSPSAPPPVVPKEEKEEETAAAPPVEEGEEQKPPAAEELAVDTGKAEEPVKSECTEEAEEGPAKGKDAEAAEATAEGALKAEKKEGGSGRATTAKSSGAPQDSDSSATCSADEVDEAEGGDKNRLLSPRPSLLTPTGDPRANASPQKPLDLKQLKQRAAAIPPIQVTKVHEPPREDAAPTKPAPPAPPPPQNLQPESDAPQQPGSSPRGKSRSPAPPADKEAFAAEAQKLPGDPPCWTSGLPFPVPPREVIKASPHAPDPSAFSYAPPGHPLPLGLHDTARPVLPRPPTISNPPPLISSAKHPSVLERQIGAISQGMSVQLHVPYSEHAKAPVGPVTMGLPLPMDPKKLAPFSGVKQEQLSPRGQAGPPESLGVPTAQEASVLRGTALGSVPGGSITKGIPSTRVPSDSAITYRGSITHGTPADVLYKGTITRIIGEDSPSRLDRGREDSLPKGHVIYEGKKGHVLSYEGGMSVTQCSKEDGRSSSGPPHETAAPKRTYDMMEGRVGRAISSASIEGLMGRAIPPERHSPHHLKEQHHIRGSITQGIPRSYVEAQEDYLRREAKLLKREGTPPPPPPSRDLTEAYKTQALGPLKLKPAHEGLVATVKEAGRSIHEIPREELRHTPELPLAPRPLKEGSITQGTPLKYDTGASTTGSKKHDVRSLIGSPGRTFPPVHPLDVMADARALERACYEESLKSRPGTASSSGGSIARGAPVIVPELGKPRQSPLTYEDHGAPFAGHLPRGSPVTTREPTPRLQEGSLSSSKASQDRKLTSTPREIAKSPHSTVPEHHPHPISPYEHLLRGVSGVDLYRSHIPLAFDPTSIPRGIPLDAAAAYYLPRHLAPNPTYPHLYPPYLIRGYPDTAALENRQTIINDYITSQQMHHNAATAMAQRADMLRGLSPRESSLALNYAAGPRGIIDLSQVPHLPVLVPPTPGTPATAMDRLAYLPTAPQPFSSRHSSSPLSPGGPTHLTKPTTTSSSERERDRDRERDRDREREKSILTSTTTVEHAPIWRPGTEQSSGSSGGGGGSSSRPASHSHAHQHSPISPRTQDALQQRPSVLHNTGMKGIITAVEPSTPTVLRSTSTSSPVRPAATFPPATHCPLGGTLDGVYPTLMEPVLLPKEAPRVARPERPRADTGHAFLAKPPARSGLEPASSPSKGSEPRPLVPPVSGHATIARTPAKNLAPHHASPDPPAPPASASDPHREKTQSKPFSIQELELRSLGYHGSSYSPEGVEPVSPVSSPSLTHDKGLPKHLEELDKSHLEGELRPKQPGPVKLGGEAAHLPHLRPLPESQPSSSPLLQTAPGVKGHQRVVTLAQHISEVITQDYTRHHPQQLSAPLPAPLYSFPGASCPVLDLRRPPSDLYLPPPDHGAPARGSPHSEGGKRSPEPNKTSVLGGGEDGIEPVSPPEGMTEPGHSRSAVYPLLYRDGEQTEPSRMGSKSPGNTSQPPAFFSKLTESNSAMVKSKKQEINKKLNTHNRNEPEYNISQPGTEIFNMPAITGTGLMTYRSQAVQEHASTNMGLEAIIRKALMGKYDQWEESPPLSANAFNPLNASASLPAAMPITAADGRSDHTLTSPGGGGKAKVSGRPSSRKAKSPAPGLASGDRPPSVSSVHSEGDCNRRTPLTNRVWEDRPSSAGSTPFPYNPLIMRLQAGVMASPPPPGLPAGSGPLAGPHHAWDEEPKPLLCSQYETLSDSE

Cn1c(=O)c2[nH]cnc2n(C)c1=O [theophylline]
HDAC1 expression relative to β-actin (HDAC1 [1]): 0.44±0.06
total HDAC activity in biopsies (HDAC activity [2]): 111±15 dpm/mg protein
BAL eosinophils [3]: 1.7±0.28%
FEV1 [3]: 3.4±0.09
FEV1 (% predicted) [3]: 92.8 ± 2.6%
Muscosal eosinophils [3]: 1.19 ± 0.43
NO [3]: 23.2 ± 3.8
PC20 methacholine [3]: 1.2±0.35
PEF am [3]: 469±19
mucosal eosinophils [3]: 1.19±0.43 eosinophils/high powered field
BAL eosinophils ([3]; listed as Theophylline): 1.7 ± 0.28%
FEV1 ([3]; listed as Theophylline): 3.42 ± 0.09
PC20 methacholine ([3]; listed as Theophylline): 1.2 ± 0.35
PEF am ([3]; listed as Theophylline): 469 ± 19
LPS-induced IL-8 release [4]: no effect
IL-1β+H2O2-induced reduction in HDAC2 expression (HDAC2 [5]; 24 hrs): restored
HDAC2 expression (HDAC2 [5]; 24 hrs): no effect
HDAC2 expression (HDAC2 [5]; 24 hours): no effect
HDAC activity, macrophages from non-smokers [6]: significantly enhanced
direct effect on HDAC activity at higher concentrations (HDAC activity [7]; 10^−4-10^−3 M): inhibited HDAC activity
concentration of maximum increase in HDAC activity (direct) (HDAC activity [7]; nuclear extracts): 10^−5 M
direct effect on HDAC activity (HDAC activity [7]; nuclear extracts, IBMX 500 μM, rolipram 10 μM, CGS-15943 10 μM): concentration-dependent increase
HDAC3 activity (HDAC3): significant induction
total cell HDAC activity after IL-1β plus H2O2 ([8]; 4 hrs, theophylline pre-treatment 10^−5 M, 10 min): significantly increased
total cell HDAC activity in LPS-stimulated cells ([8]; pretreatment 60 min, up to 10^−5 M, measured at 24 hrs): significantly increased
HDAC1 expression (HDAC1 [9]; 24 hours, theophylline 10^−4 M): induced
HDAC1 expression (HDAC1 [9]; 24 hrs): no effect
HDAC1 activity (HDAC1 [10]): significant induction
HDAC activity at 10^−4 M [11]: decreased to control levels
concentration of maximal increase in HDAC activity [11]: 10^−5 M
HDAC activity ([11]; rolipram 10 μM): concentration-dependent increase
HDAC2 expression relative to β-actin (HDAC2 [12]): 0.49±0.20
HDAC2 activity (HDAC2 [13]): without having any effect
basal HAT activity [14]: Neither theophylline nor dexamethasone had any effect
LPS-induced whole cell HAT activity ([14]; LPS 3 ng/ml, 24 hrs): significant concentration-dependent inhibitory effect
LPS-induced GM-CSF release ([15]; LPS 3 ng/ml): not associated with a significant reduction
GM-CSF release after IL-1β plus H2O2, each alone [15, 16]: neither theophylline (10^−5 M) nor dexamethasone (10^−10 M) alone had any effect
IL-1β-stimulated GM-CSF release, each alone [15, 16]: failed to inhibited
decrease in IL-1β-stimulated GM-CSF release ([15]; theophylline 10^−5 M, dexamethasone 10^−10 M, alone or combined): 20%
